Experimental data as given in patent publication US8232406B2, “c-MET protein kinase inhibitors” (Vertex Pharmaceuticals Incorporated, priority 2006, dated 2012).

The compounds below were run against c-MET (Homo sapiens, UniProt P08581) (assay: Ki determination for the inhibition of c-MET (standard radiometric 33P-ATP kinase assay, polyE4Y substrate)). Details: 1.0 nM c-Met, 35 μM ATP, 0.5 mg/mL polyE4Y, 20 min; competitive tight-binding fit.
Sequence of c-MET (P08581 25-1390): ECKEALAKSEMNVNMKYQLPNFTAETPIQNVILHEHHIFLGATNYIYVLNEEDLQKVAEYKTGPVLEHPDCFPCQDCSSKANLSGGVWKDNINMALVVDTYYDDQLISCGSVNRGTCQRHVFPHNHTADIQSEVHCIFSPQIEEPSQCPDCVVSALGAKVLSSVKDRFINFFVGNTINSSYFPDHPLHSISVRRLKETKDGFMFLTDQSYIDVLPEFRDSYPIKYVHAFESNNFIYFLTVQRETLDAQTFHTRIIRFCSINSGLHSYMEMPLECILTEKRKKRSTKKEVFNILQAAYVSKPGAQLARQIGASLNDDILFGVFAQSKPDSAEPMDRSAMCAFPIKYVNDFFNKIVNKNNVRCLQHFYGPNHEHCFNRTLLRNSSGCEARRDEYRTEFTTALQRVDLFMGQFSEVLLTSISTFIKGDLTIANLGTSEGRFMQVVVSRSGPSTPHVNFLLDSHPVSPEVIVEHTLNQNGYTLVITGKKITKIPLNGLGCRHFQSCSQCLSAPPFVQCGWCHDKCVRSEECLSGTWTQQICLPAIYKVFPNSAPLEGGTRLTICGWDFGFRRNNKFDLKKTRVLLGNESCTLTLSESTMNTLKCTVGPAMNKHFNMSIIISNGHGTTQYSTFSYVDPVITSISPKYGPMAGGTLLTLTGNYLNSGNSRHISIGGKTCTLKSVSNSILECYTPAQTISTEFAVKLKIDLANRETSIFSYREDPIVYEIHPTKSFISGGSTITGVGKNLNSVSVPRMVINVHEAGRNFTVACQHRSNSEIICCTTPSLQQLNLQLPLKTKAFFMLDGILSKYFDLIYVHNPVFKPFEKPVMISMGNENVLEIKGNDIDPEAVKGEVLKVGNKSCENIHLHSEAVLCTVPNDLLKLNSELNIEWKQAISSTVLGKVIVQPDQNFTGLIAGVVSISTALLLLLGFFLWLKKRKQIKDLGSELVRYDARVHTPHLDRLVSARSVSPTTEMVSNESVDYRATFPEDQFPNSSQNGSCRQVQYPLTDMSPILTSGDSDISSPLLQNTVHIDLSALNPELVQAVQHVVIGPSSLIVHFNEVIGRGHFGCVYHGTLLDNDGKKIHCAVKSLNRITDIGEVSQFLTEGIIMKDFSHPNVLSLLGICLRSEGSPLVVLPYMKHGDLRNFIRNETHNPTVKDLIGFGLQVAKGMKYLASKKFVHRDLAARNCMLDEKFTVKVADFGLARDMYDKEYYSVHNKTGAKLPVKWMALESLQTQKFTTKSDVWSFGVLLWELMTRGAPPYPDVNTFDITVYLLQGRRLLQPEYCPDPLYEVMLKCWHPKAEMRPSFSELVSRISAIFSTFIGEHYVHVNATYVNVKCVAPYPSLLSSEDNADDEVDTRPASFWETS
Assay type: biochemical
Method in brief: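 Radiometric assay of 33P transfer from 33P-ATP (35 μM) to polyE4Y (0.5 mg/mL) by 1.0 nM c-Met in 100 mM HEPES pH 7.5, 10 mM MgCl2, 25 mM NaCl, 0.01% BSA, 1 mM DTT. TCA-quenched after 20 min, filter-captured, scintillation-counted; Ki fitted to a competitive tight-binding model.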
COc1cc(O)ccc1-c1cnc(N)c(-c2nnnn2-c2cccc(F)c2F)c1 [I-A-220] was tested, and the Ki was at most 100 nM. COc1ccc(-c2cnc(N)c(-c3nncn3-c3cccc(Cl)c3Cl)c2)cc1OC [I-A-77] was tested, and the Ki was 100 to 1000 nM. CCN1CCC(n2cc(-c3cnc(N)c(-c4nnnn4-c4cccc(F)c4F)c3)cn2)CC1 [I-A-435] gave a Ki of at most 100 nM. Nc1nc2ccc(-c3cnc(N)c(-c4nnnn4-c4cccc(F)c4F)c3)cc2s1 [I-A-308] showed a Ki of at most 100 nM. COC(=O)C(N)c1ccc(-c2cnc(N)c(-c3nnnn3-c3cccc(F)c3F)c2)cc1 (stereo not drawn) [I-A-206] gave a Ki of at most 100 nM. In the case of Nc1ncc(-c2ccc3c(c2)OCCO3)cc1-c1nnnn1-c1cccc(F)c1F [I-A-235], the Ki is reported as at most 100 nM. With N#Cc1cc(-c2cnc(N)c(-c3nnnn3-c3cccc(F)c3F)c2)ccc1N1CCCC1 [I-A-336] the Ki was 100 to 1000 nM. Cc1ccc(Cl)cc1-n1nnnc1-c1cc(-c2cnn(C3CCNCC3)c2)cnc1N [I-A-632] was tested, and the Ki was 100 to 1000 nM. Nc1ncc(-c2ccncc2)cc1-c1nnnn1-c1cccc(F)c1F [I-A-490] was tested, and the Ki was 100 to 1000 nM. Compound Nc1ncc(-c2cccc(F)c2F)cc1-c1nnnn1-c1cccc(F)c1F [I-A-301] has a Ki of 100 to 1000 nM. Compound N#Cc1ccc(-c2cnc(N)c(-c3nncn3-c3cccc(F)c3F)c2)cc1 [I-A-113] has a Ki of 100 to 1000 nM. Nc1ncc(-c2cnn([C@@H]3CCCNC3)c2)cc1-c1nnnn1-c1cccc(Cl)c1Cl [I-A-418] was tested, and the Ki was at most 100 nM. Compound Nc1ncc(-c2cc3c(s2)CCNCC3)cc1-c1nnnn1-c1cccc(Cl)c1F [I-A-481] has a Ki of at most 100 nM. For Cn1cc(-c2cccc(Cl)c2Cl)c(-c2cc(-c3ccc(N4CCCC4)nc3)cnc2N)n1 [I-B-20], the Ki was 100 to 1000 nM. For CCC(=O)N1CC=C(c2cnc(N)c(-c3nnnn3-c3cccc(F)c3F)c2)CC1 [I-A-511], the Ki was at most 100 nM. Compound Nc1ncc(C2=CCN(C(=O)C3CCOCC3)CC2)cc1-c1nnnn1-c1cccc(F)c1F [I-A-521] has a Ki of at most 100 nM. CN1CCC(n2cc(-c3cnc(N)c(-c4nnnn4-c4cccc(Cl)c4F)c3)cn2)CC1 [I-A-436] was tested, and the Ki was at most 100 nM. Work on CC(C)CN(C)Cc1ccc(-c2cnc(N)c(-c3nnnn3-c3cccc(F)c3F)c2)cc1 [I-A-150] yielded a Ki of at most 100 nM. For CN(CCc1ccccn1)Cc1ccc(-c2cnc(N)c(-c3nnnn3-c3cccc(Cl)c3Cl)c2)cc1 [I-A-102], the Ki was 100 to 1000 nM. In the case of CN1CCN(c2ccc(-c3cnc(N)c(-c4nnnn4-c4cccc(Cl)c4Cl)c3)cc2)CC1 [I-A-85], the Ki is reported as at most 100 nM. Work on CN(C)Cc1ccc(-c2cnc(N)c(-c3nnnn3-c3c(F)cccc3F)c2)cc1 [I-A-619] yielded a Ki of at most 100 nM. Work on Nc1ncc(-c2ccc(CN3CCC(CO)CC3)cc2)cc1-c1nnnn1-c1cccc(Cl)c1Cl [I-A-96] yielded a Ki of at most 100 nM. In the case of Nc1ncc(-c2ccc(CN3CC4CC3CO4)cc2)cc1-c1nnnn1-c1cccc(F)c1F (stereo not drawn) [I-A-265], the Ki is reported as at most 100 nM. Nc1ncc(-c2cnn(C3CCN(C(=O)CO)CC3)c2)cc1-c1nnnn1-c1cccc(Cl)c1F [I-A-447] was tested, and the Ki was at most 100 nM. Work on CCN1CCC(n2cc(-c3cnc(N)c(-c4nncn4-c4cccc(Cl)c4F)c3)cn2)CC1 [I-A-458] yielded a Ki of at most 100 nM. CC(C)CN1CCC(n2cc(-c3cnc(N)c(-c4nnnn4-c4cccc(Cl)c4F)c3)cn2)CC1 [I-A-475] was tested, and the Ki was at most 100 nM. Compound Nc1ncc(-c2cnn(C3CCNCC3)c2)cc1-c1nc2cccnc2n1-c1cccc(F)c1F [I-D-7] has a Ki of at most 100 nM. CN(C)C1CCN(Cc2ccc(-c3cnc(N)c(-c4nnnn4-c4cccc(F)c4F)c3)cc2)C1 (stereo not drawn) [I-A-147] was tested, and the Ki was at most 100 nM. In the case of COc1ccc(F)cc1-n1nnnc1-c1cc(-c2ccc(NC(C)=O)cc2)cnc1N [I-A-585], the Ki is reported as 100 to 1000 nM. Compound Nc1ncc(-c2cccc(F)c2)cc1-c1nnnn1-c1cccc(F)c1F [I-A-314] has a Ki of at most 100 nM. For COc1c(F)cccc1-n1nnnc1-c1cc(-c2ccc(NC(C)=O)cc2)cnc1N [I-A-588], the Ki was 100 to 1000 nM. Cc1nnc(-c2cc(-c3ccc(CN(C)C)cc3)cnc2N)n1-c1cccc(F)c1Cl [I-A-389] gave a Ki of 100 to 1000 nM. Compound Cn1cc(-c2cccc(Cl)c2Cl)c(-c2cc(-c3cnn(C4CCNCC4)c3)cnc2N)n1 [I-B-22] has a Ki of at most 100 nM. Nc1ncc(-c2ccc(F)c(Cl)c2)cc1-c1nncn1-c1cccc(F)c1F [I-A-111] was tested, and the Ki was 100 to 1000 nM. Nc1ncc(-c2ccc(CN3CCN(CCO)CC3)cc2)cc1-c1nnnn1-c1cccc(Cl)c1Cl [I-A-104] was tested, and the Ki was at most 100 nM. Nc1ncc(-c2cnn(C3COCOC3)c2)cc1-c1nnnn1-c1cccc(F)c1F [I-A-432] was tested, and the Ki was at most 100 nM. With Nc1ncc(-c2ccc(O)c(F)c2)cc1-c1nnnn1-c1cccc(F)c1F [I-A-295] the Ki was at most 100 nM. In the case of Nc1ncc(-c2cn[nH]c2)cc1-c1nnnn1-c1cccc(F)c1F [I-A-366], the Ki is reported as at most 100 nM. Work on Nc1ncc(-c2ccccn2)cc1-c1nnnn1-c1cccc(F)c1F [I-A-493] yielded a Ki of 100 to 1000 nM. CC(=O)c1cccc(-c2cnc(N)c(-c3nncn3-c3cccc(F)c3F)n2)c1 [I-A-29] was tested, and the Ki was 100 to 1000 nM. Nc1ncc(-c2ccc(N3CCCC3)nc2)cc1-c1nncn1-c1cccc(F)c1F [I-A-40] showed a Ki of 100 to 1000 nM. Nc1ncc(C2=CCNCC2)cc1-c1nnnn1-c1cccc(F)c1F [I-A-525] gave a Ki of 100 to 1000 nM. Work on Nc1ncc(-c2cnn(C3CCNCC3)c2)cc1-c1nncn1-c1cccc(Cl)c1F [I-A-438] yielded a Ki of at most 100 nM. Work on Cc1nnc(-c2cc(-c3ccc(CN4CCCC4)cc3)cnc2N)n1-c1cccc(F)c1Cl [I-A-388] yielded a Ki of 100 to 1000 nM. Nc1ncc(-c2csc(C3CCNCC3)c2)cc1-c1nnnn1-c1cccc(F)c1F [I-A-463] gave a Ki of at most 100 nM. In the case of Nc1ncc(-c2ccc(CN3CCCC3)cc2)cc1-c1nnnn1-c1cc(Cl)ccc1F [I-A-595], the Ki is reported as 100 to 1000 nM. For CSc1ccc(-c2cnc(N)c(-c3nnnn3-c3cccc(F)c3F)c2)cc1 [I-A-251], the Ki was at most 100 nM. Work on Nc1ncc(-c2cnn(C3CCN(CC4CC4)CC3)c2)cc1-c1nnnn1-c1cccc(Cl)c1F [I-A-472] yielded a Ki of at most 100 nM. CN(C)CCCNC(=O)c1ccc(-c2cnc(N)c(-c3nnnn3-c3cccc(Cl)c3Cl)c2)cc1 [I-A-125] was tested, and the Ki was at most 100 nM. Work on Cc1nnc(-c2cc(-c3cnn(C4CCNCC4)c3)cnc2N)n1-c1cccc(F)c1Cl [I-A-390] yielded a Ki of 100 to 1000 nM. Compound Nc1ncc(-c2cccnc2)cc1-c1nnnn1-c1cccc(F)c1F [I-A-20] has a Ki of 100 to 1000 nM. Work on CC(=O)Nc1ccc(-c2cnc(N)c(-c3nnnn3-c3cccc(Cl)c3Cl)c2)cc1 [I-A-81] yielded a Ki of at most 100 nM. Cc1nnc(-c2cc(-c3cnn(C4CCNCC4)c3)cnc2N)n1-c1cccc(Cl)c1F [I-A-454] was tested, and the Ki was 100 to 1000 nM. CC(=O)Nc1cccc(-c2cnc(N)c(-c3nnnn3-c3cccc(Cl)c3)c2)c1 [I-A-359] was tested, and the Ki was 100 to 1000 nM. Work on CC(=O)Nc1cccc(-c2cnc(N)c(-n3nnnc3-c3cccc(F)c3F)c2)c1 [I-E-5] yielded a Ki of 100 to 1000 nM. For Nc1ncc(-c2cnn(C3CCCNCC3)c2)nc1-c1nnnn1-c1cccc(F)c1F (stereo not drawn) [I-A-656], the Ki was at most 100 nM. In the case of CC(=O)Nc1cccc(-c2cnc(N)c(-c3nnnn3-c3c(F)cccc3F)c2)c1 [I-A-610], the Ki is reported as 100 to 1000 nM. In the case of Nc1ncc(C2=CCN(C(=O)CC3CCOCC3)CC2)cc1-c1nnnn1-c1cccc(F)c1F [I-A-516], the Ki is reported as at most 100 nM. Nc1ncc(-c2cnc(C3CCNCC3)s2)cc1-c1nnnn1-c1cccc(Cl)c1F [I-A-491] showed a Ki of at most 100 nM. Nc1ncc(-c2ccc(CO)cc2)cc1-c1nnnn1-c1cccc(Cl)c1Cl [I-A-90] showed a Ki of at most 100 nM. With Nc1ncc(-c2cc(C(=O)O)cs2)cc1-c1nnnn1-c1cccc(F)c1F [I-A-185] the Ki was 100 to 1000 nM. CS(=O)(=O)c1ccc(-c2cnc(N)c(-c3nnnn3-c3cccc(F)c3F)c2)cc1 [I-A-250] showed a Ki of at most 100 nM. Cc1c(Cl)cccc1-n1nnnc1-c1cc(-c2cnn(C3CCNCC3)c2)cnc1N [I-A-624] gave a Ki of at most 100 nM.
